In patent US20070191935A1, “Drug Delivery Stent with Extended In Vivo Drug Release” (Conor Medsystems, Inc., priority 2006, published 2007):

Key:
[1] = in vivo paclitaxel release from stent (explanted stents, total drug load by HPLC)
Source text: The measurement of in vivo paclitaxel release from a stent can be performed according to the following Example.
Stents are implanted in a porcine model and explanted at selected time points by removing the entire artery section. The expanded stents are labeled and frozen. The tissue is removed from the stent by slicing the tissue on the outside of the stent lengthwise, inverting the tissue, and removing the tissue by cutting and turning the tissue inside out. The stent may still be covered by a tough elastic membrane which is then removed by splitting the membrane and peeling it off the stent. For longer time points, there will also be a tub of tissue inside the stent. This tube is separated from the stent with tweezers, turned inside out and pulled out of the stent.
The elution rates of drug from the examples are determined in a standard sink condition experiment.
The total drug load (TDL) of paclitaxel from a stent is determined by extracting all the polymer and drug from the stent in a solvent such as dimethyl sulfoxide (DMSO) or acetonitrile. The amount of paclitaxel in a solution sample is determined by High Pressure Liquid Chromatography (HPLC).
The in vivo release kinetic (RK) for paclitaxel from a stent is determined by running the TDL for multiple explanted time points. The TDL for the explanted samples is subtracted from the TDL of an unimplanted stent to determine the amount of paclitaxel released at each of the explanted time points.

[2] = test system: in stent neointimal proliferation; assay: clinical trials, in stent neointimal proliferation; conditions: in vivo release greater than 60 days from stent

- in vivo release of the paclitaxel on the stent in the first 30 days after implantation ([1]; first 30 days after implantation): not more than 40%
- complete release of the entire dose of paclitaxel loaded on the stent ([1]; in vivo): ≤ 8 months
- time until all the drug loaded on the stent is released ([1]; in vivo, FIG. 4): 90 to 180 days
- release rate after day one ([1]; in vivo, after day one, continues for up to about 90 days): under 0.1 μg per day
Compound: CC(=O)O[C@H]1C(=O)[C@@]2(C)[C@H]([C@H](OC(=O)c3ccccc3)[C@]3(O)C[C@H](OC(=O)[C@H](O)[C@@H](NC(=O)c4ccccc4)c4ccccc4)C(C)=C1C3(C)C)[C@]1(OC(C)=O)CO[C@@H]1C[C@@H]2O [paclitaxel]
- in stent neointimal proliferation, longer in vivo release vs more rapid release of the same dosage [2]: lower in stent neointimal proliferation than the more rapid release of the same dosage
